Assay results reported in patent US12370256B2, “Activation of resident memory T cells for the treatment of cancer” (Regents of the University of Minnesota, priority 2017, dated 2025).

System: B16 melanoma
Assay type: in vivo, C57B/6 mice

SIINFEKL (Synthetically generated peptide)
tumor growth (tumor size) (peptide alone, 0.5 μg in 30 μl PBS into established palpable tumor, once or twice 2 days apart, no adjuvant): significant inhibition of a rapidly growing tumor
tumor size and survival, peptide combined with PD-L1 blockade (peptide twice intratumorally over 48 h plus three i.v. injections of anti-PDL1): synergizes with PD-L1 blockade
